Assay results: the supplement of paper PMC10307832

Assays:
Test in all cases: relative viability (nuclei count vs DMSO), 5 days (fraction); higher = more cells survive
Selisistat + Crizotinib = compound: C1CC(C2=C(C1)C3=C(N2)C=CC(=C3)Cl)C(=O)N [Selisistat] + C[C@@H](Oc1cc(-c2cnn(C3CCNCC3)c2)cnc1N)c1c(Cl)ccc(F)c1Cl [Crizotinib] (partner 1 µM)
In short: (§1)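 Lung cancer cell lines in 1536-well plates got either a single drug or a fixed anchor-drug dose together with five library-drug doses (not always all listed) in √10 steps, by pin tool, on the day after seeding. Nuclei were counted after 5 days, and relative viability is the treated-to-vehicle ratio of nuclei counts. Values are medians of duplicate plates.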

Selisistat + Decitabine = compound: C1CC(C2=C(C1)C3=C(N2)C=CC(=C3)Cl)C(=O)N [Selisistat] + Nc1ncn([C@H]2C[C@H](O)[C@@H](CO)O2)c(=O)n1 [Decitabine] (partner 2 µM)
In short: as §1

Selisistat + OSI-027 = compound: C1CC(C2=C(C1)C3=C(N2)C=CC(=C3)Cl)C(=O)N [Selisistat] + COc1cccc2cc(-c3nc([C@H]4CC[C@H](C(=O)O)CC4)n4ncnc(N)c34)[nH]c12 [OSI-027] (partner 0.5 µM)
In short: as §1

Serdemetan + OSI-027 = compound: c1ccc2c(CCNc3ccc(Nc4ccncc4)cc3)c[nH]c2c1 [Serdemetan] + COc1cccc2cc(-c3nc([C@H]4CC[C@H](C(=O)O)CC4)n4ncnc(N)c34)[nH]c12 [OSI-027] (partner 0.5 µM)
In short: as §1

Row | Cell Line | relative viability (Selisistat + Crizotinib; first compound 0.4 µM) | relative viability (Selisistat + Crizotinib; first compound 1.265 µM) | relative viability (Selisistat + Crizotinib; first compound 4 µM) | relative viability (Selisistat + Crizotinib; first compound 12.65 µM) | relative viability (Selisistat + Crizotinib; first compound 40 µM) | relative viability (Selisistat + Decitabine; first compound 0.4 µM) | relative viability (Selisistat + Decitabine; first compound 1.265 µM) | relative viability (Selisistat + Decitabine; first compound 4 µM) | relative viability (Selisistat + Decitabine; first compound 12.65 µM) | relative viability (Selisistat + Decitabine; first compound 40 µM) | relative viability (Selisistat + OSI-027; first compound 0.4 µM) | relative viability (Selisistat + OSI-027; first compound 1.265 µM) | relative viability (Selisistat + OSI-027; first compound 4 µM) | relative viability (Selisistat + OSI-027; first compound 12.65 µM) | relative viability (Selisistat + OSI-027; first compound 40 µM) | relative viability (Serdemetan + OSI-027; first compound 0.04 µM) | relative viability (Serdemetan + OSI-027; first compound 0.1265 µM) | relative viability (Serdemetan + OSI-027; first compound 0.4 µM) | relative viability (Serdemetan + OSI-027; first compound 4 µM) | relative viability (Serdemetan + OSI-027; first compound 1.265 µM)
1 | NCI-H1975 | 0.904 | 0.863 | 0.916 | 0.854 | 0.807 | 0.396 | 0.423 | 0.346 | 0.373 | 0.365 | 0.678 | 0.718 | 0.62 | 0.659 | 0.626 | 0.851 | 0.753 | 0.775 | 0.711 | –
2 | CAL-12T | 0.668 | 0.518 | 0.795 | 0.626 | 0.422 | – | – | – | – | – | 0.726 | 0.535 | 0.472 | 0.53 | 0.694 | 0.827 | 0.638 | 0.653 | 0.518 | 0.579
3 | NCI-H1623 | – | – | – | – | – | – | – | – | – | – | 0.421 | 0.413 | 0.366 | 0.46 | 0.451 | 0.457 | 0.395 | 0.359 | 0.395 | 0.389
4 | HCC-44 | 0.804 | 0.788 | 0.957 | 0.871 | 0.801 | 0.976 | 1.01 | 0.943 | 1.01 | 1.07 | 0.591 | – | – | 0.457 | 0.586 | 0.482 | 0.498 | 0.598 | 0.452 | 0.429
5 | EKVX | 0.964 | 0.925 | 1.01 | 0.896 | 0.983 | 0.415 | 0.355 | 0.339 | 0.367 | 0.368 | 0.756 | 0.754 | 0.689 | 0.69 | 0.697 | 0.731 | 0.708 | 0.671 | 0.588 | –
6 | NCI-H1651 | 0.866 | 0.893 | 0.907 | 0.802 | 0.855 | 0.673 | 0.699 | 0.484 | 0.58 | 0.624 | 0.605 | 0.744 | 0.705 | 0.674 | 0.764 | 0.627 | 0.571 | 0.777 | 0.313 | 0.369
7 | NCI-H1944 | 1.13 | 1.01 | – | 1.09 | 1.04 | 0.506 | 0.402 | 0.441 | 0.452 | 0.465 | 0.485 | 0.394 | – | 0.433 | 0.441 | 0.435 | 0.42 | 0.394 | 0.379 | 0.331
8 | NCI-H1703 | 0.578 | 0.556 | 0.626 | 0.559 | 0.904 | – | – | – | – | – | – | – | – | – | – | – | – | – | – | –
9 | Calu-6 | 0.778 | 0.602 | 0.764 | 0.682 | 0.633 | – | – | – | – | – | – | – | – | – | – | – | – | – | – | –
10 | EBC-1 | 0.2 | 0.19 | 0.191 | 0.169 | 0.184 | – | – | – | – | – | – | – | – | – | – | – | – | – | – | –
11 | SW 1573 | 0.841 | 0.791 | 0.8 | 0.922 | 0.751 | 0.604 | 0.453 | 0.347 | 0.502 | 0.459 | 0.704 | 0.616 | 0.664 | 0.772 | 0.545 | 0.749 | 0.705 | 0.716 | 0.289 | 0.439
12 | NCI-H2228 | 0.529 | 0.49 | 0.362 | 0.442 | 0.379 | – | – | – | – | – | 0.57 | 0.541 | 0.484 | 0.651 | 0.569 | 0.526 | 0.523 | 0.464 | 0.221 | 0.17
13 | IA-LM | 0.646 | 0.759 | 1.2 | – | 0.869 | – | – | – | – | – | – | – | – | – | – | – | – | – | – | –
14 | NCI-H1793 | – | – | – | – | – | 0.489 | 0.459 | – | 0.552 | 0.616 | 0.28 | 0.245 | – | 0.299 | 0.345 | 0.385 | 0.251 | 0.236 | 0.179 | 0.186
15 | NCI-H522 | – | – | – | – | – | 0.768 | 0.662 | 0.664 | 0.617 | 0.647 | 0.744 | 0.677 | 0.61 | 0.756 | 0.681 | 0.814 | 0.704 | 0.887 | 0.712 | –
16 | NCI-H1299 | 0.944 | 1 | 0.946 | 0.944 | 1 | – | – | – | – | – | – | – | – | – | – | – | – | – | – | –
17 | NCI-H1648 | – | – | – | – | – | 0.477 | 0.45 | – | 0.406 | 0.551 | 0.274 | 0.274 | 0.264 | 0.237 | 0.277 | – | 0.255 | 0.335 | 0.256 | 0.195
18 | NCI-H2342 | – | – | – | – | – | 0.734 | 0.772 | 0.689 | 0.704 | 0.874 | 0.654 | 0.589 | 0.493 | 0.577 | 0.628 | 0.66 | 0.648 | 0.731 | 0.512 | 0.666
19 | SW 900 | – | – | – | – | – | 0.446 | 0.401 | 0.42 | 0.517 | 0.5 | 0.447 | 0.57 | 0.462 | 0.495 | 0.484 | 0.757 | 0.602 | 0.632 | 0.37 | 0.381
20 | NCI-H1395 | – | – | – | – | – | 0.781 | 0.633 | – | 0.657 | 0.809 | 0.691 | 0.675 | 0.53 | 0.502 | 0.622 | 0.526 | 0.637 | 0.734 | 0.418 | 0.651
21 | A549 | 0.716 | 0.742 | 0.698 | 0.709 | 0.728 | 0.257 | 0.209 | 0.232 | – | 0.393 | – | – | – | – | – | – | – | – | – | –
22 | NCI-H1563 | 0.804 | 0.737 | 0.835 | 0.803 | 0.776 | – | – | – | – | – | 0.761 | 0.761 | 0.76 | 0.655 | 0.703 | 0.747 | 0.74 | 0.732 | 0.614 | 0.62
